Where two headings read alike, the source gives them in different places.
Columns and labels:
[1] = system: endothelial tube formation in co-cultures of ECFCs and ADSCs treated with VEGF; assay: cells; assay type: cell-based, human
NCI-H716 cells = assay: cells; assay type: cell-based, Human
STC-1 cell line = assay type: cell-based, mouse
HeLa cells = assay: cells; assay type: cell-based
DLD-1 = assay: cells; assay type: cell-based
SW480 = assay: cells; assay type: cell-based
HCT116 = assay: cells; assay type: cell-based
Colo320 = assay: cells; assay type: cell-based
HT-29 = assay: cells; assay type: cell-based
RKO = assay: cells; assay type: cell-based
SNU-C1 = assay: cells; assay type: cell-based
[2] = system: ECFC/ADSC co-culture cell nuclei number
[3] = system: HCT116 cells treated with a GSK3β inhibitor; assay: cells; assay type: cell-based; conditions: for GSK3b inh pretreated_Viability ATP HCT116 IC50/EC50: assay number 26, GSK3b inhibitor pretreated

Row | SMILES | VEGF_ADSC\ECFC Angio CD31 TubeArea IC50/EC50 [1] [µM] | hNCI-H716 GLP1 Secretion IC50/EC50 (NCI-H716 cells) [µM] | mSTC-1 GLP1 Secretion IC50/EC50 (STC-1 cell line) [µM] | Basal_Viability ATP DLD-1 IC50/EC50 (DLD-1) [µM] | Basal_Viability ATP SW480 IC50/EC50 (SW480) [µM] | Basal_Viability ATP HCT116 IC50/EC50 (HCT116) [µM] | Basal_Viability ATP Colo 320 IC50/EC50 (Colo320) [µM] | Basal_Viability ATP HT-29 IC50/EC50 (HT-29) [µM] | Basal_Viability ATP RKO IC50/EC50 (RKO) [µM] | Basal_Viability ATP SNU-C1 IC50/EC50 (SNU-C1) [µM] | VEGF_ADSC\ECFC Angio Hoechst NucArea IC50/EC50 [2] [µM] | hNCI-H716 GLP1 Secretion IC50/EC50 (NCI-H716 cells; assay number 12) [µM] | mSTC-1 GLP1 Secretion IC50/EC50 (STC-1 cell line; assay number 13) [µM] | Basal_Viability ATP HCT116 IC50/EC50 (HCT116; assay number 25, basal) [µM] | GSK3b inh pretreated_Viability ATP HCT116 IC50/EC50 [3] [µM] | further results
1 | CCc1oc2ccccc2c1C(=O)c1cc(Br)c(O)c(Br)c1 [NCGC00013895-08] | > 10 | > 40 | > 40 | 0.2675 | 1.7408 | 1.057 | > 20 | 1.1416 | 0.1312 | 0.1053 | > 10 | – | – | – | – | Hela CellCycMod PI 2N IC50/EC50 (HeLa cells): > 10 µM; Hela CellCycMod PI 4N IC50/EC50 (HeLa cells): > 10 µM; Hela CellCycMod PI Cell Number IC50/EC50 (HeLa cells): > 10 µM; Hela CellCycMod PI MI IC50/EC50 (HeLa cells): > 10 µM; Hela CellCycMod PI S Phase IC50/EC50 (HeLa cells): > 10 µM
2 | C[C@@H]1CN(CCCn2c3ccccc3c3ccccc32)C[C@H](C)N1 [NCGC00025187-02] | – | – | – | – | – | – | – | – | – | – | – | 6.3711 | > 40 | 10.5492 | 3.848 | Basal_Viability ATP DLD-1 IC50/EC50 (DLD-1; assay number 23, basal): 9.7994 µM; Basal_Viability ATP SW480 IC50/EC50 (SW480; assay number 24, basal): 2.353 µM; Basal_Viability ATP Colo 320 IC50/EC50 (Colo320; assay number 27, basal): 15.9001 µM; Basal_Viability ATP HT-29 IC50/EC50 (HT-29; assay number 28, basal): 4.021 µM; Basal_Viability ATP RKO IC50/EC50 (RKO; assay number 29, basal): 2.184 µM; Basal_Viability ATP SNU-C1 IC50/EC50 (SNU-C1; assay number 30, basal): 6.023 µM
3 | O=C(Nc1ccc(Oc2ccc(Cl)cc2)c(Cl)c1)c1cc(I)cc(I)c1O [NCGC00160556-02] | > 10 | > 40 | 1.3019 | 0.0084 | 0.0108 | 0.01695 | 0.054 | 0.0095 | 0.0303 | 0.0143 | 6.571 | – | – | – | – | –
4 | COCC(=O)O[C@]1(CCN(C)CCCc2nc3ccccc3[nH]2)CCc2cc(F)ccc2[C@@H]1C(C)C [NCGC00161420-06] | > 10 | – | – | – | – | – | – | – | – | – | > 10 | > 40 | 8.237 | 12.3743 | 5.3311 | Basal_Viability ATP DLD-1 IC50/EC50 (DLD-1; assay number 23): 7.2629 µM; Basal_Viability ATP SW480 IC50/EC50 (SW480; assay number 24): 4.5426 µM; Basal_Viability ATP Colo 320 IC50/EC50 (Colo320; assay number 27): 10.5076 µM; Basal_Viability ATP HT-29 IC50/EC50 (HT-29; assay number 28): 3.0782 µM; Basal_Viability ATP RKO IC50/EC50 (RKO; assay number 29): 6.7187 µM; Basal_Viability ATP SNU-C1 IC50/EC50 (SNU-C1; assay number 30): 5.4372 µM
5 | OCCN1CCN(CC/C=C2/c3ccccc3Sc3ccc(C(F)(F)F)cc32)CC1 [NCGC00162179-08] | – | – | – | – | – | – | – | – | – | – | – | – | – | – | – | IC50/EC50, hNCI-H716 GLP1 Secretion (assay number 12) (NCI-H716 cells; concentration response): 32.1555 µM; IC50/EC50, mSTC-1 GLP1 Secretion (assay number 13) (STC-1 cell line; concentration response): > 40 µM; IC50/EC50, Basal_Viability ATP DLD-1 (assay number 23) (DLD-1; basal): 1.467 µM; IC50/EC50, Basal_Viability ATP SW480 (assay number 24) (SW480; basal): 3.928 µM; IC50/EC50, Basal_Viability ATP HCT116 (assay number 25) (HCT116; basal): 4.577 µM; IC50/EC50, GSK3b inh pretreated_Viability ATP HCT116 (assay number 26) ([3]; GSK3b inh pretreated): 2.894 µM; IC50/EC50, Basal_Viability ATP Colo 320 (assay number 27) (Colo320; basal): 2.3138 µM; IC50/EC50, Basal_Viability ATP HT-29 (assay number 28) (HT-29; basal): 1.808 µM; IC50/EC50, Basal_Viability ATP RKO (assay number 29) (RKO; basal): 0.3178 µM; IC50/EC50, Basal_Viability ATP SNU-C1 (assay number 30) (SNU-C1; basal): 1.035 µM
